In patent US6451576B1, “Sesquiterpene synthases from grand fir (Abies grandis), and methods of use” (Washington State University Research Foundation, priority 1998, dated 2002):

Biological target: T1, recombinant AG1 protein (SEQ ID No:13), E-α-bisabolene synthase (Abies grandis, UniProt O81086)
T1 construct: GST (fusion partner of vector pGEX-4T-2); made in house; host or cells: E. coli XL1-Blue/pGAG1
T1 sequence (O81086 1-817): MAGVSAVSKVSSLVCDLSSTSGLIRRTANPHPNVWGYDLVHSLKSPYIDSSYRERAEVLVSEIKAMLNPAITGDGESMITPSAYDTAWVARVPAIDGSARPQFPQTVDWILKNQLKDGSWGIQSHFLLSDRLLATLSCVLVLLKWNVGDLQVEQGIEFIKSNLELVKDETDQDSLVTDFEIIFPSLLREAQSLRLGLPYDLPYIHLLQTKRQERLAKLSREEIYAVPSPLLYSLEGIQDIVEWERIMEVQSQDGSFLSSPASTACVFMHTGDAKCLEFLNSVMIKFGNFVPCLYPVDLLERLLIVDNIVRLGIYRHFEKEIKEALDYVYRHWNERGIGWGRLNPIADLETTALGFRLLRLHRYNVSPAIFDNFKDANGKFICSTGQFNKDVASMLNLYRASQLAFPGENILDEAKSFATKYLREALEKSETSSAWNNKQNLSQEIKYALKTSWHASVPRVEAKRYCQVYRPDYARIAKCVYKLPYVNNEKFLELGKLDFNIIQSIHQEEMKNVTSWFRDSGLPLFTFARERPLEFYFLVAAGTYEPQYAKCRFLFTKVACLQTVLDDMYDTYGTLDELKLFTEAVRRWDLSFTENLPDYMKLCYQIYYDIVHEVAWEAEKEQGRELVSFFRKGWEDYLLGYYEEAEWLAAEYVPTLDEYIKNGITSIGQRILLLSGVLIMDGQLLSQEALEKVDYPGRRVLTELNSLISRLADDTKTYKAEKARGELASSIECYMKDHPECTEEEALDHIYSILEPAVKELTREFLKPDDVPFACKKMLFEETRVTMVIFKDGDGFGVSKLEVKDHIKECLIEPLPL
Test: Monoterpene, sesquiterpene and diterpene synthase assays of recombinant AG1 protein expressed in E. coli
Format: biochemical
Settings: extracts of XL1-Blue/pGAG1, 31° C., 2 h
Procedure: Expression of cDNA Clone AG1 (SEQ ID No:12) in E. coli. Plasmid pGAG1 was transformed into E. coli XL1-Blue (Sambrook, J., et al., (1989) Molecular Cloning: A Laboratory Manual (Cold Spring Harbor Lab., Cold Spring Harbor, N.Y.), 2nd Ed). The resulting bacterial strain E. coli XL1-Blue/pGAG1 was grown at 37° C. in 5 ml of LB medium (Sambrock, J., et al., (1989) Molecular Cloning. A Laboratory Manual (Cold Spring Harbor Lab., Cold Spring Harbor, N.Y.), 2nd Ed) supplemented with 100 μg ampicillin/ml and 12.5 μg tetracycline/ml to A600=1.0, then induced by addition of 1 mM isopropyl-1-thio-β-D-galactopyranoside and grown for another 12 h at 20° C. Cells were harvested by centrifugation (2000×g, 10 min) and resuspended in either 1 ml monoterpene synthase assay buffer, 1 ml sesquiterpene synthase assay buffer, or 1 ml diterpene synthase assay buffer (Bohlmann, J., et al., J. Biol. Chem. 272:21784-21792(1997)). […]
Characterization of Products of Recombinant E-α-Bisabolene Synthase Encoded by cDNA Clone AG1 (SEQ ID No:12) in E. coli. […] Mass spectra were compared to those of authentic standards and analyzed by Hewlett-Packard Chemstation software. […]

SMILES | conversion of substrate to terpene olefin
CC(C)=CCC/C(C)=C/COP(=O)(O)OP(=O)(O)O [geranyl diphosphate, reference compound] | inefficiently converted
CC(C)=CCC/C(C)=C/CC/C(C)=C/CC/C(C)=C/COP(=O)(O)OP(=O)(O)O [geranylgeranyl diphosphate, reference compound] | no diterpene synthase activity
